By IC50 is commonly meant the point on the concentration scale where inhibition reaches its midpoint. A word on the Papp A→B: it is the apparent permeability from the apical to the basolateral side of a cell layer. What is called efflux ratio is a quotient of directional permeabilities that is used to spot active efflux. A word on the Tmax: it is the time at which the peak concentration occurs.

The source of these data is PMC6154393 (Bioorganic & medicinal chemistry, 2018).

Converted amounts (≈) assume the structure as drawn.

Series [1] can be described thus: in vitro. As to conditions: monkey.
The subject of a further series is Mtb Erdman strain. Put plainly: BALB/c acute infection model, oral administration. The series is classed as in vivo, Mycobacterium tuberculosis.
A short description of series [2]: in vitro. As to conditions: human, Caco-2.
Series [3] has as its system non-replicating Mtb (H37Rv). The series can be described thus: microbe, parasite or virus in culture. The series is classed as cell-based. As to conditions: Mycobacterium tuberculosis, 240 h, read-out: MIC (LORA).
A further series can be described thus: in vivo. As to conditions: BALB/c, mouse, po, 30 mg/kg.
For series [4], the system named is intracellular Mtb CDC1551-tdTomato in macrophages (J774A.1 cells). The series can be described thus: Killing effect against intracellular Mtb in J774A.1 macrophages. The series is classed as cell-based, Mycobacterium tuberculosis. The conditions noted are these: at 2xMIC; for Killing of intracellular Mtb (in words): J774A.1 macrophages.
For series [5] the following is noted: mouse, in vivo, iv, 10 mg/kg.
For another series, the system named is Mycobacterium smegmatis. The conditions noted are these: cited from earlier work.

In the case of `CC[C@@H](CO)NCCN[C@@H](CC)CO` [Ethambutol (EMB), Ethambutol], the IC50 at 72 h in the series “in vitro [1]” was > 200 µg/mL.
Take `NNC(=O)c1ccncc1` [Isoniazid (INH), Isoniazid, reference compound]: in the series on Mtb Erdman strain (2.5 mg/kg, 3 weeks, lung burden relative to untreated control), the Log reduction entry is “about 4 Log10”. The IC50 at 72 h in the series “in vitro [1]” is > 200 µg/mL.
Turning to `CC(=O)NC[C@H]1CN(c2ccc(N3CCOCC3)c(F)c2)C(=O)O1` [Linezolid], in “in vitro [1]”, the IC50 at 72 h is > 200 µg/mL.
For `CNC(=C[N+](=O)[O-])NCCSCc1ccc(CN(C)C)o1` [Ranitidine], in the series “in vitro [2]”, the Papp A→B at 2 h, 10 µM came out at 0.237 ×10⁻⁶ cm/s and the efflux ratio at 2 h, 10 µM was 5.
Turning to `CO[C@H]1/C=C/O[C@@]2(C)Oc3c(C)c(O)c4c(O)c(c(/C=N/N5CCN(C)CC5)c(O)c4c3C2=O)NC(=O)/C(C)=C\C=C\[C@H](C)[C@H](O)[C@@H](C)[C@@H](O)[C@@H](C)[C@H](OC(C)=O)[C@@H]1C` [Rifampicin (RIF), Rifampicin], the IC50 at 72 h in “in vitro [1]” is > 200 µg/mL.
Consider `CC[C@]1(C)C[C@@H](OC(=O)CSC(C)(C)CNC(=O)[C@H](N)CC(C)C)[C@]2(C)[C@H](C)CC[C@]3(CC[C@@H](O)[C@H]32)[C@@H](C)[C@@H]1O` [UT-800 (1)], for which the MIC in series [3] lay in the range of 1.04 to 3.46 µg/mL (≈ 1.78 to 5.94 µM). Also, the Log10 cfu/mouse stood at 8.1E+05 in the series on Mtb Erdman strain (100 mg/kg, oral, 3 weeks, lungs, BALB/c mice, mean of 5); 4.4E+05 with Mtb Erdman strain (200 mg/kg, oral, 3 weeks, lungs, BALB/c mice, mean of 5); 1.2E+06 with Mtb Erdman strain (in vivo). For the same molecule, the Viable organisms persisted with Mtb Erdman strain (200 mg/kg, 3 weeks) is 5.6-5.7 log10 cfu/mouse. The Tmax in the series “in vivo” was ≤ 1 h. Also, in series [4] (J774A.1 cells, Mtb CDC1551-tdTomato), the “Time to kill Mtb in infected macrophages” value is on record as ≤ 72 h. For the same molecule, the “Killing of intracellular Mtb (in words)” value is “kills intracellular Mtb faster than rifampicin” in series [4]; “killed intracellular Mtb more effectively than INH and RIF” in series [4] (listed as 1). In series [5], the AUC0-24h is recorded as 66,281 ng•h/g.
On to `C=C[C@]1(C)C[C@@H](OC(=O)CSC(C)(C)CNC(=O)[C@H](N)CC(C)C)[C@]2(C)[C@H](C)CC[C@]3(CCC(=O)[C@H]32)[C@@H](C)[C@@H]1O` [UT-810 (2)], for which the MIC in series [3] lay within 1.04 to 3.46 µg/mL (≈ 1.8 to 5.98 µM).
Consider `CC[C@]1(C)C[C@@H](OC(=O)CSC(C)(C)CNC(=O)[C@H](N)CC(C)C)[C@]2(C)[C@H](C)CC[C@]3(CCC(=O)[C@H]32)[C@@H](C)[C@@H]1O` [UT-815 (3)], for which the MIC in series [3] fell in the range of 1.04 to 3.46 µg/mL (≈ 1.79 to 5.96 µM).
As for `C=C[C@]1(C)C[C@@H](OC(=O)CSC(C)(C)CNC(=O)[C@H](N)CC(C)C)[C@]2(C)[C@H](C)CC[C@]3(CC[C@@H](O)[C@H]32)[C@@H](C)[C@@H]1O` [UT-820 (4)], the MIC in series [3] lay within 1.04 to 3.46 µg/mL (≈ 1.79 to 5.96 µM).
For `C=C[C@]1(C)C[C@@H](OC(=O)CSC(C)(C)CNC(=O)[C@H](N)C(C)C)[C@]2(C)[C@H](C)CC[C@]3(CCC(=O)[C@H]32)[C@@H](C)[C@@H]1O` [Valnemulin], the MIC in the series with Mycobacterium smegmatis was 8 to 16 µg/mL. Also, half-maximal inhibition in the series “in vitro [1]” (IC50 at 72 h) was put at 15 µg/mL (≈ 26.6 µM).
